Results as given in patent US11857519B2, “Compounds and methods for the targeted degradation of enhancer of zeste homolog 2 polypeptide” (Arvinas Operations, Inc., priority 2016, dated 2024).

Target: T1, EZH2 (Homo sapiens, UniProt Q15910)
T1 construct: Protocol of the Cellular Assay of Target Protein Degradation (VCaP Cells, ELISA); endogenous in cells; host or cells: VCaP cells
Test: Cellular assay of target protein degradation (VCaP cells, ELISA)
Format: cell-based
Details: 4 hours, protein degradation range at indicated concentration (relative to DMSO control)
Description: Protocol of the Cellular Assay of Target Protein Degradation (VCaP Cells, ELISA).
For detection Cell Signaling PathScan Sandwich ELISA Catalog #12850 Lot 11 was used. VCaP cells were cultured in ATCC DMEM+ATCC FBS and plated 40,000/well 100 μl/well in RPMI P/S with 5% CSS Omega (bovine) serum into a 96 well plate. The cells were grown for a minimum of 3 days, dosed with compounds in 0.1% DMSO (diluted with 5% CSS) and incubated with aspiration for 4 hours. 100 μl of 1× Cell Signaling lysis buffer #9803 (36 mL dH2O+4 mL Cell Signaling lysis buffer) was added. The incubation was placed on cold room shaker for 10 minutes at speed 8-9. 5 μl to 100 μL of Diluent was transferred to ELISA plate (0.15 μg/mL−0.075 μg/mL) and stored at 4° C. overnight on cold room shaker speed 5 (gentle swirl) and then shaken next morning at 37° C. for 30 minutes. The preparation was washed 4×200 μl with ELISA wash buffer and aspirated with eight-channel aspirator. 100 μl/well of target protein detection antibody was added after, which the preparation was covered and shaken at 37° C. for 1 hour. 100 μl TMB was added, and the mixture was shaken for 5 min while under observation. When TMB turned light blue, 100 μl of Stop solution was added, and the mixture was shaken and read at 450 nm. Also read at 562 nm for background subtraction.

T1 sequence (Q15910 whole entry): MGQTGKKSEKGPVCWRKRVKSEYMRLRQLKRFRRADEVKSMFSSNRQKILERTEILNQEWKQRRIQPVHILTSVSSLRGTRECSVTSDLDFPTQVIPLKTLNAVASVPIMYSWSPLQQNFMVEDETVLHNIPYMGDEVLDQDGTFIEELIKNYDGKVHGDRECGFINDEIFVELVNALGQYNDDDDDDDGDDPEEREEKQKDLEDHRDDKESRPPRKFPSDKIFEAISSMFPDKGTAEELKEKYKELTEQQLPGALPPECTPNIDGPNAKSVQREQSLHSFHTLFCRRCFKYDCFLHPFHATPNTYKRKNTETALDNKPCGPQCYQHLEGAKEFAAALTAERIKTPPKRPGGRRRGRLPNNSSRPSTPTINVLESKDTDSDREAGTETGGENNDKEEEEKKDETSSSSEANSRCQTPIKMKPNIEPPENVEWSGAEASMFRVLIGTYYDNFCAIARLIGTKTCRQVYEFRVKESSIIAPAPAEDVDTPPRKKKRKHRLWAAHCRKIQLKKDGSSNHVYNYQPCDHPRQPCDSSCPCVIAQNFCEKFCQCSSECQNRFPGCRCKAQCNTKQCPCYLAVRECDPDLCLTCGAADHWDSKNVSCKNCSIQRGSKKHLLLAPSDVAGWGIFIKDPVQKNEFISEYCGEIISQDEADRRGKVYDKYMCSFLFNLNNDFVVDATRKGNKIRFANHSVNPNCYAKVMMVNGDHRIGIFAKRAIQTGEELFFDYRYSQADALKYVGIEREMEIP
T1 sequence (O75530 whole entry partner): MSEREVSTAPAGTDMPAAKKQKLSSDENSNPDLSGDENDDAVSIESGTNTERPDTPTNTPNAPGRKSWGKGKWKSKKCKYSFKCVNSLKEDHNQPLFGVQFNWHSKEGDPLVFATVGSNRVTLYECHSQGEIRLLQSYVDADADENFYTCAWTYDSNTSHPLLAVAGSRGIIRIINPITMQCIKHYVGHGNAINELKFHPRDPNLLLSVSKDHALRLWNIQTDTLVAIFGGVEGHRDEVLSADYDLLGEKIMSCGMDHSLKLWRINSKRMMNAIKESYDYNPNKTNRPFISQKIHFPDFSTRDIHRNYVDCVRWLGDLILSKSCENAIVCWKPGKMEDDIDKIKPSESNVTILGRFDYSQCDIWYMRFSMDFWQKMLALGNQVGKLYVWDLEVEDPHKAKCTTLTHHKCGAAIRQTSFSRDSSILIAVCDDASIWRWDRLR
T1 sequence (Q15022 whole entry partner): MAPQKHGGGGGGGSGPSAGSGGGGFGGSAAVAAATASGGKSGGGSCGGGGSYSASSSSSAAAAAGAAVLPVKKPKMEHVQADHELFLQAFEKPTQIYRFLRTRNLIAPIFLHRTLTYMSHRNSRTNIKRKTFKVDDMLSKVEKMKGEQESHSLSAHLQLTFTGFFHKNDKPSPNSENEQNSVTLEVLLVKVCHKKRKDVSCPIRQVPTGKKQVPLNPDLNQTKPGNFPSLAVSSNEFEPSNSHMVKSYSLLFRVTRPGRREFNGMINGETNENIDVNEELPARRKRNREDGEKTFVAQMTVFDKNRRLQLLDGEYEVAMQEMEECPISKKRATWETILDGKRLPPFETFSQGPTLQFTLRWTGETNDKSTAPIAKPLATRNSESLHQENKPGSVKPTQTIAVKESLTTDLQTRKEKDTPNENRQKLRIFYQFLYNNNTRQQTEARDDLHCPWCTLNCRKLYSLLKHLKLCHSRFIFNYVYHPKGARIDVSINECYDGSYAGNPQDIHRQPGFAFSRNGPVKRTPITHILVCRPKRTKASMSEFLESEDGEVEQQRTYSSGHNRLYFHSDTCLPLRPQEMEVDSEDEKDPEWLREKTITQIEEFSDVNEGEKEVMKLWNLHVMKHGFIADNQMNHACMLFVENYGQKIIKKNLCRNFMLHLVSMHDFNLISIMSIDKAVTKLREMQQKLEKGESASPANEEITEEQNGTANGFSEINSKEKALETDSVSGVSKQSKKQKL

SMILES | percent target protein degradation class
CCN(c1cc(-c2ccc(OCCCCOc3ccc4c(c3)C(=O)N(C3CCC(=O)NC3=O)C4=O)cc2)cc(C(=O)NCc2c(C)cc(C)[nH]c2=O)c1C)C1CCOCC1 (stereo not drawn) [Compound 60, N-[(4,6-dimethyl-2-oxo-1,2-dihydropyridin-3-yl)methyl]-5-[4-(4-{[2-(2,6-dioxopiperidin-3-yl)-1,3-dioxo-2,3-dihydro-1H-isoindol-5-yl]oxy}butoxy)phenyl]-3-[ethyl(oxan-4-yl)amino]-2-methylbenzamide] | A (A = degradation more than 60%)
CCN(c1cc(-c2ccc(CN3CCN(CCOCC(=O)N[C@H](C(=O)N4C[C@H](O)C[C@H]4C(=O)N[C@@H](C)c4ccc(-c5scnc5C)cc4)C(C)(C)C)CC3)cc2)cc(C(=O)NCc2c(C)cc(C)[nH]c2=O)c1C)C1CCOCC1 [Compound 116, (2S,4R)-1-((S)-2-(2-(2-(4-((3′-(((4,6-dimethyl-2-oxo-1,2-dihydropyridin-3-yl)methyl)carbamoyl)-5′-(ethyl(tetrahydro-2H-pyran-4-yl)amino)-4′-methyl-[1,1′-biphenyl]-4-yl)methyl)piperazin-1-yl)ethoxy)acetamido)-3,3-dimethylbutanoyl)-4-hydroxy-N-((S)-1-(4-(4-methylthiazol-5-yl)phenyl)ethyl)pyrrolidine-2-carboxamide] | A (A = degradation more than 60%)
CCN(c1cc(-c2ccc(OCCOCCOc3ccc4c(c3)C(=O)N(C3CCC(=O)NC3=O)C4=O)cc2)cc(C(=O)NCc2c(C)cc(C)[nH]c2=O)c1C)C1CCOCC1 (stereo not drawn) [Compound 57, N-[(4,6-dimethyl-2-oxo-1,2-dihydropyridin-3-yl)methyl]-5-{4-[2-(2-{[2-(2,6-dioxopiperidin-3-yl)-1,3-dioxo-2,3-dihydro-1H-isoindol-5-yl]oxy}ethoxy)ethoxy]phenyl}-3-[ethyl(oxan-4-yl)amino]-2-methylbenzamide] | B (B = degradation between 30% and 60%)
CCN(c1cc(-c2ccc(OCCN3CCN(c4ccc5c(c4)C(=O)N(C4CCC(=O)NC4=O)C5=O)CC3)cc2)cc(C(=O)NCc2c(C)cc(C)[nH]c2=O)c1C)C1CCOCC1 (stereo not drawn) [Compound 91, N-((4,6-dimethyl-2-oxo-1,2-dihydropyridin-3-yl)methyl)-4′-(2-(4-(2-(2,6-dioxopiperidin-3-yl)-1,3-dioxoisoindolin-5-yl)piperazin-1-yl)ethoxy)-5-(ethyl(tetrahydro-2H-pyran-4-yl)amino)-4-methyl-[1,1′-biphenyl]-3-carboxamide] | A (A = degradation more than 60%)
CCN(c1cc(-c2ccc(CN3CCN(CCCCOCC(=O)N[C@H](C(=O)N4C[C@H](O)C[C@H]4C(=O)N[C@@H](C)c4ccc(-c5scnc5C)cc4)C(C)(C)C)CC3)cc2)cc(C(=O)NCc2c(C)cc(C)[nH]c2=O)c1C)C1CCOCC1 [Compound 117, (2S,4R)-1-((S)-2-(2-(4-(4-((3′-(((4,6-dimethyl-2-oxo-1,2-dihydropyridin-3-yl)methyl)carbamoyl)-5′-(ethyl(tetrahydro-2H-pyran-4-yl)amino)-4′-methyl-[1,1′-biphenyl]-4-yl)methyl)piperazin-1-yl)butoxy)acetamido)-3,3-dimethylbutanoyl)-4-hydroxy-N-((S)-1-(4-(4-methylthiazol-5-yl)phenyl)ethyl)pyrrolidine-2-carboxamide] | A (A = degradation more than 60%)
CCN(c1cc(-c2ccc(CN3CCN(CC4CCN(c5ccc6c(c5)C(=O)N(C5CCC(=O)NC5=O)C6=O)CC4)CC3)cc2)cc(C(=O)NCc2c(C)cc(C)[nH]c2=O)c1C)C1CCOCC1 (stereo not drawn) [Compound 113, N-((4,6-dimethyl-2-oxo-1,2-dihydropyridin-3-yl)methyl)-4′-((4-((1-(2-(2,6-dioxopiperidin-3-yl)-1,3-dioxoisoindolin-5-yl)piperidin-4-yl)methyl)piperazin-1-yl)methyl)-5-(ethyl(tetrahydro-2H-pyran-4-yl)amino)-4-methyl-[1,1′-biphenyl]-3-carboxamide] | B (B = degradation between 30% and 60%)
